Results as given in the kinase profiling compilation of Christmann-Franck et al. (2016).
Values joined by “and” are separate entries in the source; they are usually repeats but may differ in a detail not shown here. Equal entries are not always repeated. One block for each compound: values may come before it.

What was measured:
Assay in all cases: KINOMEscan competition binding
Details in all cases: compound 10.0 µM
[1] = target: EGFR (human) (UniProt P00533)
[2] = target: MAP4K5 (human) (UniProt Q9Y4K4)
[3] = target: MYO3B (human) (UniProt Q8WXR4)
[4] = target: MET (human) (UniProt P08581)
[5] = target: LIMK2 (human) (UniProt P53671)
[6] = target: RPS6KA6 KD1 (human) (UniProt Q9UK32)
[7] = target: WEE2 (human) (UniProt P0C1S8)
[8] = target: TLK2 (human) (UniProt Q86UE8)
[9] = target: NEK7 (human) (UniProt Q8TDX7)
[10] = target: ABL1 (human) (UniProt P00519)
[11] = target: MAPK7 (human) (UniProt Q13164)
[12] = target: PRKCH (human) (UniProt P24723)
[13] = target: CDK11A (human) (UniProt Q9UQ88)
[14] = test system: EGFR (human), P00533 [A750P; 747-749 del]
[15] = target: PRKCD (human) (UniProt Q05655)
[16] = target: PRKACB (human) (UniProt P22694)
[17] = target: PTK2 (human) (UniProt Q05397)
[18] = target: EPHB2 (human) (UniProt P29323)
[19] = target: MARK4 (human) (UniProt Q96L34)
[20] = target: MAP2K6 (human) (UniProt P52564)
[21] = test system: ABL1 (human), P00519 [T315I]
[22] = target: CDK18 (human) (UniProt Q07002)
[23] = target: CAMK2D (human) (UniProt Q13557)
[24] = target: MYO3A (human) (UniProt Q8NEV4)
[25] = test system: PIK3CA (human), P42336 [E545K]
[26] = target: RIPK1 (human) (UniProt Q13546)
[27] = target: NTRK2 (human) (UniProt Q16620)
[28] = target: IRAK3 (human) (UniProt Q9Y616)
[29] = target: ROS1 (human) (UniProt P08922)
[30] = target: NUAK2 (human) (UniProt Q9H093)
[31] = target: PDPK1 (human) (UniProt O15530)
[32] = target: TNK2 (human) (UniProt Q07912)
[33] = target: CSK (human) (UniProt P41240)
[34] = target: BMPR1A (human) (UniProt P36894)
[35] = target: NEK9 (human) (UniProt Q8TD19)
[36] = target: PAK1 (human) (UniProt Q13153)
[37] = target: MAPKAPK5 (human) (UniProt Q8IW41)
[38] = target: PRKX (human) (UniProt P51817)
[39] = target: CAMK1 (human) (UniProt Q14012)
[40] = target: TEC (human) (UniProt P42680)
[41] = target: CAMK4 (human) (UniProt Q16566)
[42] = target: MAP3K3 (human) (UniProt Q99759)
Sequence of MAP3K3 (human) (Q99759 whole entry, looked up): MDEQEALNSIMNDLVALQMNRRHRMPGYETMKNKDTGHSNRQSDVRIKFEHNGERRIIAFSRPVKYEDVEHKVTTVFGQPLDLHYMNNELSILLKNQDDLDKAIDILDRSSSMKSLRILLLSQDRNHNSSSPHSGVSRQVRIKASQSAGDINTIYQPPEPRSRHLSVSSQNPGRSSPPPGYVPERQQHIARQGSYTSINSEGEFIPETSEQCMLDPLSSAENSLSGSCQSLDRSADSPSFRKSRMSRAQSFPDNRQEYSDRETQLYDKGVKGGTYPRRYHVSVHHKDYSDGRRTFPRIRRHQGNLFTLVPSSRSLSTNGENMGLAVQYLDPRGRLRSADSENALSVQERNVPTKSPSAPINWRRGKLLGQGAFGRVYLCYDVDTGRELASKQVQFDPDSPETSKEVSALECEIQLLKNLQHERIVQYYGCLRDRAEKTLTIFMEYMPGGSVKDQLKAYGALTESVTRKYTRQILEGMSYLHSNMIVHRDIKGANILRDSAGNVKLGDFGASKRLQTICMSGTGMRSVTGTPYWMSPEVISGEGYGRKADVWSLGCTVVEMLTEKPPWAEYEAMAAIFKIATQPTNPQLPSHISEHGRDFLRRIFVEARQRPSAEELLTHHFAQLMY

Sequence of BMPR1A (human) (P36894 whole entry, looked up): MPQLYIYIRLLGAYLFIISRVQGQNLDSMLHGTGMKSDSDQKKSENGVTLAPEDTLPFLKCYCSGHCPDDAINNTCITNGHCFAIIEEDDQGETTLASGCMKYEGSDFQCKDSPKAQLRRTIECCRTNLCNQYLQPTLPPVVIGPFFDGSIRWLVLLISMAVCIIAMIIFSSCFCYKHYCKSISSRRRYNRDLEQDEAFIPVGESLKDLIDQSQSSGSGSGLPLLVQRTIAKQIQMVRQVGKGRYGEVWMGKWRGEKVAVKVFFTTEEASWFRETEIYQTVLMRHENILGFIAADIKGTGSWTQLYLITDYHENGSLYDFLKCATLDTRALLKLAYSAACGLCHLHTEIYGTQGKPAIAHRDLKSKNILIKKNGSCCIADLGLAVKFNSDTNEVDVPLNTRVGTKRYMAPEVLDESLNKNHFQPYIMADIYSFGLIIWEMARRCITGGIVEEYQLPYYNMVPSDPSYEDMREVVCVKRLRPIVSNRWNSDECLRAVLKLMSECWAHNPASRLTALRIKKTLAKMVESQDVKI
Sequence of PDPK1 (human) (O15530 whole entry, looked up): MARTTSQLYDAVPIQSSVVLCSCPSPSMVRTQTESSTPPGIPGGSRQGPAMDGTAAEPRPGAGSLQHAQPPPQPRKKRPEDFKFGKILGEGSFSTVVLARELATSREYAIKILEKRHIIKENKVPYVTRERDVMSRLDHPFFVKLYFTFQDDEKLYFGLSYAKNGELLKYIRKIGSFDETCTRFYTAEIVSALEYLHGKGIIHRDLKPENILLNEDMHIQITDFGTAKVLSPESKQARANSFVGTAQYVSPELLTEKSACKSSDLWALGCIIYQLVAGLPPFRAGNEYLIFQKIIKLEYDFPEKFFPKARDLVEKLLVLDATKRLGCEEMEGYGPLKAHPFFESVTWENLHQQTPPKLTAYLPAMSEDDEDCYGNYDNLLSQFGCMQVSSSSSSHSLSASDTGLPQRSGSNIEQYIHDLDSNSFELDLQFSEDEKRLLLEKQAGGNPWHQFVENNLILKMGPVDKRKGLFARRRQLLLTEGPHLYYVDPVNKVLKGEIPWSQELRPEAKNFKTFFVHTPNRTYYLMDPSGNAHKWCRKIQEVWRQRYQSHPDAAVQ
Sequence of MAPK7 (human) (Q13164 whole entry, looked up): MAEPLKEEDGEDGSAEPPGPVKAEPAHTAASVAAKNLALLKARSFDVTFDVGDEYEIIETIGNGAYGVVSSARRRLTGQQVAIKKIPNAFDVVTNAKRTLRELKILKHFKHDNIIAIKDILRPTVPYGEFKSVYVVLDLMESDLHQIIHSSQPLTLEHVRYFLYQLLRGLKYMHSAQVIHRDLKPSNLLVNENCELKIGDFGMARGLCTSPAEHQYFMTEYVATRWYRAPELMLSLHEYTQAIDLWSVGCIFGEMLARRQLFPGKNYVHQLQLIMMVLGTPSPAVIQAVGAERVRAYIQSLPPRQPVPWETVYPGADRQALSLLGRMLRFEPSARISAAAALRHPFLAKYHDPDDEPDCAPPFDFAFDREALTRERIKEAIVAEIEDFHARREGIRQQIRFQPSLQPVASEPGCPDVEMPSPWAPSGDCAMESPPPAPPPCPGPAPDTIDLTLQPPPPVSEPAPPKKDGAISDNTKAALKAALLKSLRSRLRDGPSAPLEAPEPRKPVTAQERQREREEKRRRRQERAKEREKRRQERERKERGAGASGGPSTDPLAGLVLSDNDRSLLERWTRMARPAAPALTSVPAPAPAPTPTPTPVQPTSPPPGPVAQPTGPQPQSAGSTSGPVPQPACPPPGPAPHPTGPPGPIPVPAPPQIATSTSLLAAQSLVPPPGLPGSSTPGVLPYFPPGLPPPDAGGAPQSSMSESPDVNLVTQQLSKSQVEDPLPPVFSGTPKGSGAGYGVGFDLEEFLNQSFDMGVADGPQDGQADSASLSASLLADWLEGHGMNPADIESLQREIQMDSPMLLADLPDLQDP
Sequence of MARK4 (human) (Q96L34 whole entry, looked up): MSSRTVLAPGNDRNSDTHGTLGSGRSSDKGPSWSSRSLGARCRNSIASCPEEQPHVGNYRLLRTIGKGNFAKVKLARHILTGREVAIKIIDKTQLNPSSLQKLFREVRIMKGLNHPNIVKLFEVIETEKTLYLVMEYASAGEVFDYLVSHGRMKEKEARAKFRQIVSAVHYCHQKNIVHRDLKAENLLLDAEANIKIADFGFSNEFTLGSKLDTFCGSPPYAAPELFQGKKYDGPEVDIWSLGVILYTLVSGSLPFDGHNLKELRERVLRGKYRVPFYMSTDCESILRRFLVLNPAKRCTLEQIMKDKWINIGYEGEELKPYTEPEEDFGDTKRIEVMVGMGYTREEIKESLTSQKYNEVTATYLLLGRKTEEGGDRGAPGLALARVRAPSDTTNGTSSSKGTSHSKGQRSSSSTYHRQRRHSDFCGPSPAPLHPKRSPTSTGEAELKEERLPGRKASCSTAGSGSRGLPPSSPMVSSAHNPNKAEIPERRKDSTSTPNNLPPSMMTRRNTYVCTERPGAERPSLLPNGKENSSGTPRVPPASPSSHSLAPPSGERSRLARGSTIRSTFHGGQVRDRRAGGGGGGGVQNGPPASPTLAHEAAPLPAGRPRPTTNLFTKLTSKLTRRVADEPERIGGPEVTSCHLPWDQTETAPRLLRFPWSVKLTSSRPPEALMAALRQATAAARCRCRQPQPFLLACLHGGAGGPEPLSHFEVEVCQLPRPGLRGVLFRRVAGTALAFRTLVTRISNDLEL
Sequence of MAP4K5 (human) (Q9Y4K4 whole entry, looked up): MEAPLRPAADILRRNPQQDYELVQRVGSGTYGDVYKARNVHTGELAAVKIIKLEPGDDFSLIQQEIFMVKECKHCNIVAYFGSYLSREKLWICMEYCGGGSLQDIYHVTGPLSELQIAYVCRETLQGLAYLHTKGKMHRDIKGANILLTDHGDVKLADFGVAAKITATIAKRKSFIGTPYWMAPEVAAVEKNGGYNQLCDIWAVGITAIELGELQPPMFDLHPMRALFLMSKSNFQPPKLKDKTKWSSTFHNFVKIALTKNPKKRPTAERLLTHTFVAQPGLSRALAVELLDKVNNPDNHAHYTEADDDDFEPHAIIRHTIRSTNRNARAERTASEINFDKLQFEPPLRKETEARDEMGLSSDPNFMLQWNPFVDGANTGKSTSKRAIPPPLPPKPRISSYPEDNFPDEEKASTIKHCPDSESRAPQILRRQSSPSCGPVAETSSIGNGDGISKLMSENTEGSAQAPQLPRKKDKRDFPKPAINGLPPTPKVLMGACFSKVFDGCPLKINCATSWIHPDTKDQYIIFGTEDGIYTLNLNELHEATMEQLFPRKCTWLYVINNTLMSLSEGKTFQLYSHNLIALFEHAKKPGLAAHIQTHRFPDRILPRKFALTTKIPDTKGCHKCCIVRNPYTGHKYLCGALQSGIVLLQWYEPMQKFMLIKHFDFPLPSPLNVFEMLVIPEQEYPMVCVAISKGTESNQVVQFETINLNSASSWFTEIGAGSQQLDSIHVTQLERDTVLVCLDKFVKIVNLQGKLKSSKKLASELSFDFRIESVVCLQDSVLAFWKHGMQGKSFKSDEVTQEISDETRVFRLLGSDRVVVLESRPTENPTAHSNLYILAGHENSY
Sequence of IRAK3 (human) (Q9Y616 whole entry, looked up): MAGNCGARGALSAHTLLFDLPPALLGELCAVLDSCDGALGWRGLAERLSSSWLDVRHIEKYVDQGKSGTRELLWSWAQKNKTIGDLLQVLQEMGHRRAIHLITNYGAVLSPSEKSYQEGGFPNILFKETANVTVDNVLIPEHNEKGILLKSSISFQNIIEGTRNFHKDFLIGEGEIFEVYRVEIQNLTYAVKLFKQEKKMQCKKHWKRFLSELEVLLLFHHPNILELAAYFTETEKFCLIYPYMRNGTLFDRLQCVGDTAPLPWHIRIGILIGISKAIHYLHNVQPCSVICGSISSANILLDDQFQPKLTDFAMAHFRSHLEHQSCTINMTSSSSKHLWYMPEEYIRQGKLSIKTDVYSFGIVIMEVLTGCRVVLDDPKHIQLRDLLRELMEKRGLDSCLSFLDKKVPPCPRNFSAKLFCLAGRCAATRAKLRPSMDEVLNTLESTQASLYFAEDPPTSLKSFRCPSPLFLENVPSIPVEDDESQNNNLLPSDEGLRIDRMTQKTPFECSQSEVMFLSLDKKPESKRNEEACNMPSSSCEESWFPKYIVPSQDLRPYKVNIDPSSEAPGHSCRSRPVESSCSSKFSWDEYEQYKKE
Sequence of NEK7 (human) (Q8TDX7 whole entry, looked up): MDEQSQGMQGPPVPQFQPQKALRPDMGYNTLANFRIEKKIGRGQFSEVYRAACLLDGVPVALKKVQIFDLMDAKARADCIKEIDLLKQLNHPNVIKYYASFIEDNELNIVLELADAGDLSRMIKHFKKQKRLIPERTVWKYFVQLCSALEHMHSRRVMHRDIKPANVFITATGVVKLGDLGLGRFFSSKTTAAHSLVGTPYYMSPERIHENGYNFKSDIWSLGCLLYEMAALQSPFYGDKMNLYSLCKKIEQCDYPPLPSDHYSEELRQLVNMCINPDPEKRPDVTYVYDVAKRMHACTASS

kinase still bound, per cent of control [1]: 59% and 83%
kinase still bound, per cent of control [2]: 99%
kinase still bound, per cent of control [3]: 77%
kinase still bound, per cent of control [4]: 90%
kinase still bound, per cent of control [5]: 100%
kinase still bound, per cent of control [6]: 87%
kinase still bound, per cent of control [7]: 87%
kinase still bound, per cent of control [8]: 94%
kinase still bound, per cent of control [9]: 98%
kinase still bound, per cent of control [10]: 100%
kinase still bound, per cent of control [11]: 0.3%
kinase still bound, per cent of control [12]: 100%
kinase still bound, per cent of control [13]: 100%
kinase still bound, per cent of control [14]: 84%
kinase still bound, per cent of control [15]: 100%
kinase still bound, per cent of control [16]: 100%
kinase still bound, per cent of control [17]: 4.6%
kinase still bound, per cent of control [18]: 94%
kinase still bound, per cent of control [19]: 86%
kinase still bound, per cent of control [20]: 100%
kinase still bound, per cent of control [21]: 100%
kinase still bound, per cent of control [22]: 100%
kinase still bound, per cent of control [23]: 65%
kinase still bound, per cent of control [24]: 54%
kinase still bound, per cent of control [25]: 88%
kinase still bound, per cent of control [26]: 100%
kinase still bound, per cent of control [27]: 100%
kinase still bound, per cent of control [28]: 84%
kinase still bound, per cent of control [29]: 29%
kinase still bound, per cent of control [30]: 60%
kinase still bound, per cent of control [31]: 100%
kinase still bound, per cent of control [32]: 23%
kinase still bound, per cent of control [33]: 90%
kinase still bound, per cent of control [34]: 100%
kinase still bound, per cent of control [36]: 83%
kinase still bound, per cent of control [37]: 95%
kinase still bound, per cent of control [38]: 91%
kinase still bound, per cent of control [39]: 78%
kinase still bound, per cent of control [40]: 100%
kinase still bound, per cent of control [41]: 100%
kinase still bound, per cent of control [42]: 94%
Structure (SMILES): COc1cc(N2CCC(O)CC2)ccc1Nc1ncc2c(n1)N1CCc3cccc(c31)C(=O)N2C
kinase still bound, per cent of control [35]: 77%

kinase still bound, per cent of control [1]: 100%
kinase still bound, per cent of control [2]: 100%
kinase still bound, per cent of control [3]: 93%
kinase still bound, per cent of control [4]: 100%
kinase still bound, per cent of control [5]: 100%
kinase still bound, per cent of control [6]: 100%
kinase still bound, per cent of control [7]: 100%
kinase still bound, per cent of control [8]: 100%
kinase still bound, per cent of control [9]: 100%
kinase still bound, per cent of control [10]: 85%
kinase still bound, per cent of control [11]: 65%
kinase still bound, per cent of control [12]: 95%
kinase still bound, per cent of control [13]: 100%
kinase still bound, per cent of control [14]: 100%
kinase still bound, per cent of control [15]: 100%
kinase still bound, per cent of control [16]: 100%
kinase still bound, per cent of control [17]: 100%
kinase still bound, per cent of control [18]: 91%
kinase still bound, per cent of control [19]: 91%
kinase still bound, per cent of control [20]: 100%
kinase still bound, per cent of control [21]: 85%
kinase still bound, per cent of control [22]: 100%
kinase still bound, per cent of control [23]: 100%
kinase still bound, per cent of control [24]: 100%
kinase still bound, per cent of control [25]: 99%
kinase still bound, per cent of control [26]: 100%
kinase still bound, per cent of control [27]: 69%
kinase still bound, per cent of control [28]: 92%
kinase still bound, per cent of control [29]: 100%
kinase still bound, per cent of control [30]: 100%
kinase still bound, per cent of control [31]: 100%
kinase still bound, per cent of control [32]: 92%
kinase still bound, per cent of control [33]: 100%
kinase still bound, per cent of control [34]: 100%
kinase still bound, per cent of control [36]: 99%
kinase still bound, per cent of control [37]: 63%
kinase still bound, per cent of control [38]: 86%
kinase still bound, per cent of control [39]: 100%
kinase still bound, per cent of control [40]: 93%
kinase still bound, per cent of control [41]: 100%
kinase still bound, per cent of control [42]: 100%
Structure (SMILES): CN1CCN(c2ccc(C(=O)Nc3ncc4c(n3)N(C)c3ccccc3C(=O)N4C)cc2)CC1
kinase still bound, per cent of control [35]: 100%

kinase still bound, per cent of control [1]: 80% and 87%
kinase still bound, per cent of control [2]: 99%
kinase still bound, per cent of control [3]: 52%
kinase still bound, per cent of control [4]: 96%
kinase still bound, per cent of control [5]: 83%
kinase still bound, per cent of control [6]: 96%
kinase still bound, per cent of control [7]: 94%
kinase still bound, per cent of control [8]: 93%
kinase still bound, per cent of control [9]: 93%
kinase still bound, per cent of control [10]: 79%
kinase still bound, per cent of control [11]: 0.1%
kinase still bound, per cent of control [12]: 95%
kinase still bound, per cent of control [13]: 95%
kinase still bound, per cent of control [14]: 70%
kinase still bound, per cent of control [15]: 100%
kinase still bound, per cent of control [16]: 100%
kinase still bound, per cent of control [17]: 13%
kinase still bound, per cent of control [18]: 100%
kinase still bound, per cent of control [19]: 59%
kinase still bound, per cent of control [20]: 100%
kinase still bound, per cent of control [21]: 66%
kinase still bound, per cent of control [22]: 76%
kinase still bound, per cent of control [23]: 59%
kinase still bound, per cent of control [24]: 59%
kinase still bound, per cent of control [25]: 74%
kinase still bound, per cent of control [26]: 100%
kinase still bound, per cent of control [27]: 83%
kinase still bound, per cent of control [28]: 77%
kinase still bound, per cent of control [29]: 100%
kinase still bound, per cent of control [30]: 8%
kinase still bound, per cent of control [31]: 93%
kinase still bound, per cent of control [32]: 25%
kinase still bound, per cent of control [33]: 88%
kinase still bound, per cent of control [34]: 100%
kinase still bound, per cent of control [36]: 81%
kinase still bound, per cent of control [37]: 69%
kinase still bound, per cent of control [38]: 82%
kinase still bound, per cent of control [39]: 71%
kinase still bound, per cent of control [40]: 91%
kinase still bound, per cent of control [41]: 80%
kinase still bound, per cent of control [42]: 72%
Structure (SMILES): COc1cc(N2CCN(C)CC2)ccc1Nc1ncc2c(n1)N(C)c1sccc1C(=O)N2C
kinase still bound, per cent of control [35]: 94%
